ChEMBL document CHEMBL1140195, “Synthesis, screening for antitubercular activity and 3D-QSAR studies of substituted N-phenyl-6-methyl-2-oxo-4-phenyl-1,2,3,4-tetrahydro-pyrimidine-5-carboxamides” (2008)
≈ marks a conversion by molar mass, not a printed value.

How the values were obtained:
Type in all cases: functional
[1] = tested on: Mycobacterium tuberculosis; test: Antitubercular activity against Mycobacterium tuberculosis H37Rv
[2] = tested on: Mycobacterium tuberculosis; test: Antitubercular activity against Mycobacterium tuberculosis H37Rv at 6.25 ug/mL relative to control
[3] = tested on: Mycobacterium tuberculosis; test: Antitubercular activity against Mycobacterium tuberculosis

SMILES	MIC [1]	inhibition at 6.25 µg/mL [2]	MIC [3]
CC1=C(C(=O)Nc2ccccc2F)C(c2ccc([N+](=O)[O-])cc2)NC(=O)N1 (centres undefined)	> 6.25 µg/mL	4%	
CC1=C(C(=O)Nc2ccc(C)c(C)c2)C(c2ccc([N+](=O)[O-])cc2)NC(=O)N1 (centres undefined)	> 6.25 µg/mL	13%	
CC1=C(C(=O)Nc2ccc(F)c(Cl)c2)C(c2cccc([N+](=O)[O-])c2)NC(=O)N1 (centres undefined)	> 6.25 µg/mL	29%	
CC1=C(C(=O)Nc2ccccc2F)C(c2cccc([N+](=O)[O-])c2)NC(=O)N1 (centres undefined)	> 6.25 µg/mL	24%	
CC1=C(C(=O)Nc2ccc(F)cc2)C(c2cccc(Cl)c2)NC(=O)N1 (centres undefined)	> 6.25 µg/mL	38%	
CC1=C(C(=O)Nc2ccccc2Cl)C(c2ccccc2[N+](=O)[O-])NC(=O)N1 (centres undefined)	> 6.25 µg/mL	11%	
CC1=C(C(=O)Nc2cc(C)ccc2C)C(c2cccc(Oc3ccccc3)c2)NC(=O)N1 (centres undefined)	> 6.25 µg/mL	27%	
CC1=C(C(=O)Nc2cccc(C)c2C)C(c2cccc(Oc3ccccc3)c2)NC(=O)N1 (centres undefined)	> 6.25 µg/mL	65%	
CC1=C(C(=O)Nc2ccccc2Cl)C(c2ccc(Cl)cc2)NC(=O)N1 (centres undefined)	> 6.25 µg/mL	26%	
CC1=C(C(=O)Nc2ccccc2)C(c2ccc([N+](=O)[O-])cc2)NC(=O)N1 (centres undefined)	> 6.25 µg/mL	25%	
CC1=C(C(=O)Nc2ccc(Cl)cc2)C(c2cccc([N+](=O)[O-])c2)NC(=O)N1 (centres undefined)	> 6.25 µg/mL	29%	
CC1=C(C(=O)Nc2ccc(F)cc2)C(c2cccc([N+](=O)[O-])c2)NC(=O)N1 (centres undefined)	> 6.25 µg/mL	30%	
CC1=C(C(=O)Nc2ccccc2C)C(c2cccc([N+](=O)[O-])c2)NC(=O)N1 (centres undefined)	> 6.25 µg/mL	6%	
CC1=C(C(=O)Nc2ccc(C)c(C)c2)C(c2cccc(Oc3ccccc3)c2)NC(=O)N1 (centres undefined)	> 6.25 µg/mL	32%	
CC1=C(C(=O)Nc2cc(C)ccc2C)C(c2ccc([N+](=O)[O-])cc2)NC(=O)N1 (centres undefined)	> 6.25 µg/mL	4%	
CC1=C(C(=O)Nc2cc(C)ccc2C)C(c2ccc(Cl)cc2)NC(=O)N1 (centres undefined)	> 6.25 µg/mL	6%	
CC1=C(C(=O)Nc2ccccc2F)C(c2ccc(O)cc2)NC(=O)N1 (centres undefined)	> 6.25 µg/mL	18%	
CC1=C(C(=O)Nc2ccc(C)cc2C)C(c2ccc(O)cc2)NC(=O)N1 (centres undefined)	> 6.25 µg/mL	12%	
CC1=C(C(=O)Nc2cccc([N+](=O)[O-])c2)C(c2ccc(O)cc2)NC(=O)N1 (centres undefined)	> 6.25 µg/mL	2%	
CC1=C(C(=O)Nc2ccc(F)c(Cl)c2)C(c2ccc([N+](=O)[O-])cc2)NC(=O)N1 (centres undefined)	> 6.25 µg/mL	22%	
CC1=C(C(=O)Nc2ccccc2Cl)C(c2cccc([N+](=O)[O-])c2)NC(=O)N1 (centres undefined)	> 6.25 µg/mL	26%	
CC1=C(C(=O)Nc2ccc(F)c(Cl)c2)C(c2cccc(Cl)c2)NC(=O)N1 (centres undefined)	> 6.25 µg/mL	48%	
CC1=C(C(=O)Nc2ccc(C)cc2C)C(c2ccc([N+](=O)[O-])cc2)NC(=O)N1 (centres undefined)	> 6.25 µg/mL	12%	
CC1=C(C(=O)Nc2ccc(C)cc2)C(c2cccc([N+](=O)[O-])c2)NC(=O)N1 (centres undefined)	> 6.25 µg/mL	28%	
CC1=C(C(=O)Nc2ccc(Cl)cc2)C(c2ccc([N+](=O)[O-])cc2)NC(=O)N1 (centres undefined)	> 6.25 µg/mL	9%	
CC1=C(C(=O)Nc2cc(Cl)ccc2Cl)C(c2ccc([N+](=O)[O-])cc2)NC(=O)N1 (centres undefined)	> 6.25 µg/mL	18%	
CC1=C(C(=O)Nc2ccc(C)c(C)c2)C(c2cccc([N+](=O)[O-])c2)NC(=O)N1 (centres undefined)	> 6.25 µg/mL	63%	
COc1ccc(NC(=O)C2=C(C)NC(=O)NC2c2ccc([N+](=O)[O-])cc2)cc1 (centres undefined)	> 6.25 µg/mL	21%	
COc1ccc(C2NC(=O)NC(C)=C2C(=O)Nc2cc(C)ccc2C)cc1 (centres undefined)	> 6.25 µg/mL	2%	
CCCc1cc(=O)oc2c3c(c4c(c12)OC(C)(C)C=C4)O[C@H](C)[C@@H](C)[C@@H]3O [CALANOLIDE A]			3.13 µg/mL (≈ 8.45 µM)
